Reference: ChEMBL document CHEMBL3885881, “DrugMatrix”

Species on record: Rattus norvegicus
Assay: DrugMatrix - Regimen: Daily Repeat
Assay type: toxicity, organism-based, Sprague-Dawley
Set-up: regimen Daily Repeat, gender Male, age 6-8 weeks
Settings: in vivo, po, route oral GAVAGE, vehicle .5 % CMC; for ABSOLUTE BASOPHIL / ABSOLUTE EOSINOPHIL / ABSOLUTE LYMPHOCYTE / ABSOLUTE MONOCYTE / ABSOLUTE SEGMENTED NEUTROPHIL / BASOPHIL / EOSINOPHIL / ERYTHROCYTE COUNT / HEMATOCRIT / HEMOGLOBIN / LEUKOCYTE COUNT / LYMPHOCYTE / MEAN CORPUSCULAR HEMOGLOBIN / MEAN CORPUSCULAR HEMOGLOBIN CONCENTRATION / MEAN CORPUSCULAR VOLUME / MONOCYTE / NEUTROPHIL / NUCLEATED RED BLOOD CELLS / PLATELET COUNT: tissue Blood; for ALANINE AMINOTRANSFERASE / ALBUMIN / ALKALINE PHOSPHATASE / ASPARTATE AMINOTRANSFERASE / BLOOD UREA NITROGEN / CARBON DIOXIDE / CHLORIDE / CHOLESTEROL / CREATINE PHOSPHOKINASE / CREATININE / GLUCOSE / LACTATE DEHYDROGENASE / LIPASE / PHOSPHORUS / POTASSIUM / SODIUM / TOTAL BILIRUBIN / TOTAL PROTEIN / URIC ACID: tissue Plasma
[1] = 0 mg/kg, 72 h, dose level Control, time 3 day
[2] = 0 mg/kg, 120 h, dose level Control, time 5 day
[3] = 20 mg/kg, 72 h, dose level Low, time 3 day

NC(=O)N1c2ccccc2CC(=O)c2ccccc21 [OXCARBAZEPINE]
ABSOLUTE BASOPHIL [1]: 0 CELLS/uL
ABSOLUTE EOSINOPHIL [1]: 0 CELLS/uL
ABSOLUTE LYMPHOCYTE [1]: 12269.67 CELLS/uL
ABSOLUTE MONOCYTE [1]: 160.33 CELLS/uL
ABSOLUTE SEGMENTED NEUTROPHIL [1]: 970 CELLS/uL
BASOPHIL [1]: 0%
EOSINOPHIL [1]: 0%
ERYTHROCYTE COUNT [1]: 5.76 x10E6/uL
HEMATOCRIT [1]: 36.57%
HEMOGLOBIN [1]: 14.22 G/DL
LEUKOCYTE COUNT [1]: 13.4 x10E3/uL
LYMPHOCYTE [1]: 91.67%
MEAN CORPUSCULAR HEMOGLOBIN [1]: 24.67 pg
MEAN CORPUSCULAR HEMOGLOBIN CONCENTRATION [1]: 38.85 G/DL
MEAN CORPUSCULAR VOLUME [1]: 63.52 fL
MONOCYTE [1]: 1.17%
NEUTROPHIL [1]: 7.17%
NUCLEATED RED BLOOD CELLS [1]: 0.33 /100WBC
PLATELET COUNT [1]: 1250.83 x10E3/uL
ALANINE AMINOTRANSFERASE [1]: 49.17 u/L
ALBUMIN [1]: 4.33 G/DL
ALKALINE PHOSPHATASE [1]: 378.5 u/L
ASPARTATE AMINOTRANSFERASE [1]: 82.17 u/L
BLOOD UREA NITROGEN [1]: 15 mg/dL
CARBON DIOXIDE [1]: 34.33 mmol/L
CHLORIDE [1]: 99.17 MEQ/L
CHOLESTEROL [1]: 71.17 mg/dL
CREATINE PHOSPHOKINASE [1]: 258.67 u/L
CREATININE [1]: 0.18 mg/dL
GLUCOSE [1]: 142.67 mg/dL
LACTATE DEHYDROGENASE [1]: 154.33 u/L
LIPASE [1]: 9 u/L
PHOSPHORUS [1]: 11.67 mg/dL
POTASSIUM [1]: 7.13 MEQ/L
SODIUM [1]: 142.22 MEQ/L
TOTAL BILIRUBIN [1]: 0.18 mg/dL
TOTAL PROTEIN [1]: 5.77 G/DL
URIC ACID [1]: 1.55 mg/dL
ABSOLUTE BASOPHIL [2]: 0 CELLS/uL
ABSOLUTE EOSINOPHIL [2]: 23.33 CELLS/uL
ABSOLUTE LYMPHOCYTE [2]: 14943.67 CELLS/uL
ABSOLUTE MONOCYTE [2]: 32 CELLS/uL
ABSOLUTE SEGMENTED NEUTROPHIL [2]: 1084.33 CELLS/uL
BASOPHIL [2]: 0%
EOSINOPHIL [2]: 0.17%
ERYTHROCYTE COUNT [2]: 5.71 x10E6/uL
HEMATOCRIT [2]: 35.28%
HEMOGLOBIN [2]: 14.27 G/DL
LEUKOCYTE COUNT [2]: 16.08 x10E3/uL
LYMPHOCYTE [2]: 93%
MEAN CORPUSCULAR HEMOGLOBIN [2]: 25.02 pg
MEAN CORPUSCULAR HEMOGLOBIN CONCENTRATION [2]: 40.43 G/DL
MEAN CORPUSCULAR VOLUME [2]: 61.82 fL
MONOCYTE [2]: 0.17%
NEUTROPHIL [2]: 6.67%
NUCLEATED RED BLOOD CELLS [2]: 0.33 /100WBC
PLATELET COUNT [2]: 1274 x10E3/uL
ALANINE AMINOTRANSFERASE [2]: 54.17 u/L
ALBUMIN [2]: 4.22 G/DL
ALKALINE PHOSPHATASE [2]: 373.17 u/L
ASPARTATE AMINOTRANSFERASE [2]: 81.83 u/L
BLOOD UREA NITROGEN [2]: 16.67 mg/dL
CARBON DIOXIDE [2]: 30.33 mmol/L
CHLORIDE [2]: 99 MEQ/L
CHOLESTEROL [2]: 71 mg/dL
CREATINE PHOSPHOKINASE [2]: 273.5 u/L
CREATININE [2]: 0.22 mg/dL
GLUCOSE [2]: 141.83 mg/dL
LACTATE DEHYDROGENASE [2]: 153.67 u/L
LIPASE [2]: 10.33 u/L
PHOSPHORUS [2]: 11.38 mg/dL
POTASSIUM [2]: 7.08 MEQ/L
SODIUM [2]: 142.75 MEQ/L
TOTAL BILIRUBIN [2]: 0.18 mg/dL
TOTAL PROTEIN [2]: 6.1 G/DL
URIC ACID [2]: 1.67 mg/dL
ABSOLUTE BASOPHIL [3]: 0 CELLS/uL
ABSOLUTE EOSINOPHIL [3]: 39.67 CELLS/uL
ABSOLUTE LYMPHOCYTE [3]: 12910 CELLS/uL
ABSOLUTE MONOCYTE [3]: 169.33 CELLS/uL
ABSOLUTE SEGMENTED NEUTROPHIL [3]: 1314.33 CELLS/uL
BASOPHIL [3]: 0%
EOSINOPHIL [3]: 0.33%
ERYTHROCYTE COUNT [3]: 5.51 x10E6/uL
HEMATOCRIT [3]: 35.53%
HEMOGLOBIN [3]: 14 G/DL
LEUKOCYTE COUNT [3]: 14.43 x10E3/uL
LYMPHOCYTE [3]: 90%
MEAN CORPUSCULAR HEMOGLOBIN [3]: 25.43 pg
MEAN CORPUSCULAR HEMOGLOBIN CONCENTRATION [3]: 39.43 G/DL
MEAN CORPUSCULAR VOLUME [3]: 64.5 fL
MONOCYTE [3]: 1.33%
NEUTROPHIL [3]: 8.33%
NUCLEATED RED BLOOD CELLS [3]: 0.33 /100WBC
PLATELET COUNT [3]: 1357.67 x10E3/uL
ALANINE AMINOTRANSFERASE [3]: 55.67 u/L
ALBUMIN [3]: 4.33 G/DL
ALKALINE PHOSPHATASE [3]: 378.33 u/L
ASPARTATE AMINOTRANSFERASE [3]: 87.67 u/L
BLOOD UREA NITROGEN [3]: 12.67 mg/dL
CARBON DIOXIDE [3]: 27.33 mmol/L
CHLORIDE [3]: 103 MEQ/L
CHOLESTEROL [3]: 73.33 mg/dL
CREATINE PHOSPHOKINASE [3]: 333.33 u/L
CREATININE [3]: 0.24 mg/dL
GLUCOSE [3]: 150.67 mg/dL
LACTATE DEHYDROGENASE [3]: 316 u/L
LIPASE [3]: 10 u/L
PHOSPHORUS [3]: 13.2 mg/dL
POTASSIUM [3]: 7.12 MEQ/L
SODIUM [3]: 146.57 MEQ/L
TOTAL BILIRUBIN [3]: 0.2 mg/dL
TOTAL PROTEIN [3]: 5.93 G/DL
URIC ACID [3]: 2.37 mg/dL
